# Where two headings read alike, the source gives them in different places.
# B1: scFv-Fragment MCSP (scFv)
# scFv: MADYKDIVMTQSPASLAVSLGQRATISCRASESVDSYGNSFMHWYQQKPGQPPKLLIYLASNLESGVPARFSGSGSRTDFTLTIDPVEADDAATYYCQQNNEDPLTFGSGTKLETKRGGGGSGGGGSGGGGSGGGGSQVQLKQSGPELVKPGASVKISCKASGYAFSRSWMNWVKQRPGQGLEWIGRIYPGDGDTNYNGKFKGKATLTADKSSSTAYMQVSSLTSVDSAVYFCARGNTVVVPYTMDYWGQGTSVTVPSASGADHHHHHH
# B2: scFv-Fragment MCSP HL (scFv)
# scFv: MADYKQVKLQQSGPELVKPGASVKISCKASGYAFSRSWMNWVKQRPGQGLEWIGRIYPGDGDTNYNGKFKGKATLTADKSSSTAYMQVSSLTSVDSAVYFCARGNTVVVPYTMDYWGQGTTVTVSSGGGGSGGGGSGGGGSDIELTQSPASLAVSLGQRATISCRASESVDSYGNSFMHWYQQKPGQPPKLLIYLASNLESGVPARFSGSGSRTDFTLTIDPVEADDAATYYCQQNNEDPLTFGGGTKLELKRSASGADHHHHHH
# Tests used:
# [1] = melanoma patients, cited from earlier work
# AML = conditions: Bross et al. 2001; cited from earlier work
# [2] = molecular target: Melanom-assoziiertes Chondroitinsulfat Proteoglykan (MCSP) (human) (UniProt Q6UVK1); assay: flow cytometry, saturation binding on A2058 melanoma cells, half-maximal saturation concentration
# [3] = molecular target: Melanom-assoziiertes Chondroitinsulfat Proteoglykan (MCSP) (human) (UniProt Q6UVK1); assay: ratio of KD values, flow cytometry on A2058 cells
molecule,measurement,setting,value
"CN(C)/N=N/c1[nH]cnc1C(N)=O [Dacarbazin, Dimethyl-trizeno-imidazol-Carboxamid]",Ansprechraten,[1]; according to newer studies (Avril et al. 2004),~7%
same,Ansprechraten,[1]; as given in most studies,10 - 20%
GO: gegen CD33 gerichteter humanisierter Antikörper gekoppelt an Calicheamycin,"Patienten, die ansprechen",AML,~30%
same,mittlere rückfallfreie Überlebenszeit,AML,"6,8 Monate"
B1,Kd,[2],23.3 nM
B2,fold improvement of affinity against the original scFv MCSP,[3],14 fold
same,Kd,[2],1.65 nM

# — patent EP2261258A1, “MCSP-aligned scFv antibody fragments and use of same” (Schuler, Gerold, priority 2009, dated 2010)
